# In US8586573B2, “N-(Aminoheteroaryl)-1H-indole-2-carboxamide derivatives, and preparation and therapeutic application thereof” (Sanofi, priority 2006, dated 2013):
# Key:
# TRPV1 receptor = biological target: T1, TRPV1 receptor (Rattus norvegicus, UniProt O35433); assay: Inhibition of the current induced by capsaicin on rat DRGs (whole-cell patch-clamp); assay type: cell-based; details: DRG neuron, inhibition of control capsaicin (1 microM) response, newborn rat DRG neurons; for inhibition at 0.01 µM: compound at 10 nM; for inhibition at 0.001 µM: compound at 1 nM
# T1 construct: The neurons of the DRG naturally express the TRPV1 receptor; endogenous in cells; host or cells: primary culture of newborn rat dorsal root ganglion neurons
# T1 sequence (O35433 whole entry): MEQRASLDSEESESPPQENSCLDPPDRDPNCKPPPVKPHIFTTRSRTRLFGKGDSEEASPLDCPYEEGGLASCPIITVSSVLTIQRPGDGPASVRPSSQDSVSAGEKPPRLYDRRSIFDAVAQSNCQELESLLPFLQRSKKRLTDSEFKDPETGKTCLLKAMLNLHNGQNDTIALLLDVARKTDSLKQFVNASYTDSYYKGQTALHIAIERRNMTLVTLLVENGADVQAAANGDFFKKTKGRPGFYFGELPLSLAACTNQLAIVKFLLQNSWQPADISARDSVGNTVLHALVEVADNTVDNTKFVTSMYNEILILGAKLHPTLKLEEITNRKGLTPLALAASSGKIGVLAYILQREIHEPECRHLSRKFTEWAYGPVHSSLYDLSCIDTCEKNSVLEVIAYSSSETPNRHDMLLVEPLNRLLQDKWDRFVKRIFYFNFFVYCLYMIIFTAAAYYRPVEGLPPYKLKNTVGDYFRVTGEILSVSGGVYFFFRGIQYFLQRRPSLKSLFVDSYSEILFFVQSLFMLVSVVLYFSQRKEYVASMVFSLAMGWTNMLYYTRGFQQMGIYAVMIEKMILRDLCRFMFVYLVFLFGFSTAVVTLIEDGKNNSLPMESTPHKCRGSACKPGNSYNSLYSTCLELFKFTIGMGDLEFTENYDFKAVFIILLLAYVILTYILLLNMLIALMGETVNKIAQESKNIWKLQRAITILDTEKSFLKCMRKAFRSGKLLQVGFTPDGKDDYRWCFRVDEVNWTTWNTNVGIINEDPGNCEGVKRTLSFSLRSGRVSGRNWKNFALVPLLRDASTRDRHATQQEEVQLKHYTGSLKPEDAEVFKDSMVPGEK
# Protocol: Test for Inhibition of the Current Induced by Capsaicin on Rat DRGs
# • Primary culture of rat dorsal root ganglion (DRG) cells:
# The neurons of the DRG naturally express the TRPV1 receptor.
# Newborn rat DRG primary cultures are prepared from one-day-old rat pups. Briefly, after dissection, the ganglia are trypsinized and the cells are mechanically dissociated by controlled trituration. The cells are resuspended in an Eagle's basal culture medium containing 10% of foetal calf serum, 25 mM KCl, 2 mM glutamine, 100 μg/ml gentamycin and 50 ng/ml of NGF, and then deposited onto laminin-coated glass cover slips (0.25×10^6 cells per cover slip) which are then placed in 12-well Corning dishes. The cells are incubated at 37° C. in a humidified atmosphere containing 5% CO2 and 95% air. Cytosine β-D-arabinoside (1 μM) is added 48 h after placing in culture, in order to prevent the development of non-neuronal cells. The cover slips are transferred into the experimental chambers for the patch-clamp studies after 7-10 days of culture. • Electrophysiology:
# The measuring chambers (volume 800 μl) containing the cell preparation are placed on the platform of an inverted microscope (Olympus IMT2) equipped with Hoffman optics (Modulation Contrast, New York) and observed at the magnification of ×400. The chambers are continually perfused by gravity (2.5 ml/min) by means of a solution distributing device with 8 inlets, and the sole outlet of which, consisting of a polyethylene tube (500 μm aperture), is placed at least 3 mm from the cell studied. The “whole cell” configuration of the patch-clamp technique was used. The borosilicate glass pipettes (resistance 5-10 MOhms) are moved close to the cell by means of a 3D piezoelectric micromanipulator (Burleigh, PC1000). The overall currents (membrane potential fixed at −60 mV) are recorded with an Axopatch 1D amplifier (Axon Instruments, Foster city, Calif.), connected to a PC control by Pclamp8 software (Axon Instrument). The current traces are recorded on paper and simultaneously digitized (sampling frequency […]) and acquired on the hard drive of the PC.
# The application of a micromolar solution of capsaicin causes, on the DRG cells (voltage fixed at −70 mV), an inward cationic current. In order to minimize the desensitization of the receptors, a minimum period of one minute is observed between two applications of capsaicin. After a controlled period (stabilization of the capsaicin response alone), the compounds to be tested are applied alone at a given concentration (concentration of 10 nM or of […]) for a period of 4 to 5 minutes, during which several capsaicin+compound tests are carried out (obtaining of maximum inhibition). The results are expressed as % inhibition of the control capsaicin response.
# TRPV1 receptors = biological target: T2, TRPV1 receptors (Mus musculus, UniProt Q704Y3); assay: Mouse corneal irritation test (capsaicin-induced eye rubbing); assay type: in vivo; details: compound 500 μM, 2 μl local application to cornea 10 min before capsaicin 160 μM; eye rubs counted over 2 min
# T2 construct: from tissue; host or cells: cornea of the living mouse (in vivo)
# T2 sequence (Q704Y3 whole entry): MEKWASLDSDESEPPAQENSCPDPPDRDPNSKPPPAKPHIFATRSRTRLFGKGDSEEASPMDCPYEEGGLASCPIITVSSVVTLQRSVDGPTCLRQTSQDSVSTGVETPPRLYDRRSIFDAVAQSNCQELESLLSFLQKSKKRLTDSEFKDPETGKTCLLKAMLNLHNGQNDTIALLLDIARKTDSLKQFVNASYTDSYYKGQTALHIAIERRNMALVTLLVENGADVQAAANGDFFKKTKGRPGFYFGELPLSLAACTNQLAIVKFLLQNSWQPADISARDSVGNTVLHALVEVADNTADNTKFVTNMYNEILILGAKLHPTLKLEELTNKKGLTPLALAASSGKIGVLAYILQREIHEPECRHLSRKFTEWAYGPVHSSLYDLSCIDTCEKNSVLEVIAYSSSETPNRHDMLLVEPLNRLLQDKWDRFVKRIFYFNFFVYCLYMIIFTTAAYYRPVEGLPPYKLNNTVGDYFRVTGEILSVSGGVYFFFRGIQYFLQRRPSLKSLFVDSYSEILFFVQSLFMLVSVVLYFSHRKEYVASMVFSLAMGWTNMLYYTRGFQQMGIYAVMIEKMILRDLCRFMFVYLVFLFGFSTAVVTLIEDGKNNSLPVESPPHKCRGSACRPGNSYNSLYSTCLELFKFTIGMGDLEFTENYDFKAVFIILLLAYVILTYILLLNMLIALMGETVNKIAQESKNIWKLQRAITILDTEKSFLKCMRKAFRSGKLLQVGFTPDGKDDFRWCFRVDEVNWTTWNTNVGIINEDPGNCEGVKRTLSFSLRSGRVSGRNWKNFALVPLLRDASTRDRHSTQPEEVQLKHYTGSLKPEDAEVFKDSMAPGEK
# Protocol: Mouse Corneal Irritation Test
# The irritant nature of capsaicin can be readily assessed at the level of the cornea since this organ is one of the most innervated by C fibres. In this context, according to preliminary experiments, the application of a very small amount of capsaicin (2 μl at a concentration of 160 μM) to the surface of the cornea of an animal results in a certain number of stereotyped behaviors associated with the irritation and that can be readily listed. Among these are: blinking of the eye, rubbing of the instilled eye with the ipsilateral forelimb, rubbing of the face with both forelimbs, scratching of the ipsilateral face with the hind limb. […]
# In practice, the product to be tested, prepared at 25 mM in DMSO and diluted for its final use in physiological serum with 10% Tween 80, at the highest concentration of 500 μM, is administered by local application to the surface of the cornea in a volume of 2 μl, 10 minutes before the application of the capsaicin. […] Over the course of a period of observation of 2 minutes following the instillation, the number of times the instilled eye is rubbed by the ipsilateral forelimb is counted for each animal. For each given group, the percentage protection is calculated as follows: P=100−((average number of scratches of the group treated with the compound/average number of scratches of the group treated with the solvent)×100) […]
smiles,measurement,setting,value
"O=C(Nc1ccc(N2CCC(O)C2)nc1)c1cc2cc(F)ccc2n1Cc1cccc(F)c1 (stereo not drawn) [Compound 7, N-[6-(3-hydroxypyrrolidin-1-yl)pyridin-3-yl]-5-fluoro-1-(3-fluorobenzyl)-1H-indole-2-carboxamide]",inhibition at 0.01 µM,TRPV1 receptor,85%
"O=C(Nc1ccc(N2CCCC2)nc1)c1cc2cc(F)ccc2n1Cc1cccc(F)c1 [Compound 2, N-[6-(pyrrolidin-1-yl)pyridin-3-yl]-5-fluoro-1-(3-fluorobenzyl)-1H-indole-2-carboxamide]",inhibition at 0.001 µM,TRPV1 receptor,46%
same,% P 500 μM (percentage protection),TRPV1 receptors,72%
same,melting point,,199 to 201 °C
"O=C(Nc1ccc(N2CCC2)nc1)c1cc2cc(F)ccc2n1Cc1cccc(F)c1 [Compound 4, N-[6-(azetidin-1-yl)pyridin-3-yl]-5-fluoro-1-(3-fluorobenzyl)-1H-indole-2-carboxamide]",inhibition at 0.001 µM,TRPV1 receptor,89%
"O=C(Nc1cnc(N2CCCC2)nc1)c1cc2cc(F)ccc2n1Cc1cccc(F)c1 [Compound 21, N-[2-(pyrrolidin-1-yl)pyrimidin-5-yl]-5-fluoro-1-(3-fluorobenzyl)-1H-indole-2-carboxamide]",inhibition at 0.01 µM,TRPV1 receptor,79%
same,melting point,,220 to 222 °C
"Cc1cc(Cn2c(C(=O)Nc3ccc(N4CCCC4)nc3)cc3cc(F)ccc32)ccn1 [Compound 19, N-[6-(pyrrolidin-1-yl)pyridin-3-yl]-5-fluoro-1-[(2-methylpyridin-4-yl)methyl]-1H-indole-2-carboxamide]",melting point,,213 to 215 °C
"O=C(Nc1ccc(N2CC(O)C2)nc1)c1cc2cc(F)ccc2n1Cc1cccc(F)c1 [Compound 24, N-[6-(3-hydroxyazetidin-1-yl)pyridin-3-yl]-5-fluoro-1-(3-fluorobenzyl)-1H-indole-2-carboxamide]",melting point,,199 to 200 °C
"Cc1cc(C)c2cc(C(=O)Nc3ccc(N4CCC4)nc3)n(Cc3cccc(F)c3)c2c1 [Compound 32, N-[6-(azetidin-1-yl)pyridin-3-yl]-4,6-dimethyl-1-(3-fluorobenzyl)-1H-indole-2-carboxamide]",melting point,,234 to 236 °C
"CN(C)c1ccc2cc(C(=O)Nc3ccc(N4CCC4)nc3)n(Cc3cccc(F)c3)c2c1 [Compound 36, N-[6-(azetidin-1-yl)pyridin-3-yl]-6-dimethylamino-1-(3-fluorobenzyl)-1H-indole-2-carboxamide]",melting point,,256 to 258 °C
"O=C(Nc1ccc(N2CCC2)nc1)c1cc2cccc(F)c2n1Cc1cccc(F)c1 [Compound 39, N-[6-(azetidin-1-yl)pyridin-3-yl]-7-fluoro-1-(3-fluorobenzyl)-1H-indole-2-carboxamide]",melting point,,244 to 246 °C
